Experimental data reported in ChEMBL document CHEMBL4840353, “Investigation on the solid-phase synthesis of silybin prodrugs and their timed-release” (Bioorg Med Chem, 2021).
pEC50: −log10 of the molar value. Values after ≈ are worked out from the molar mass of the structure shown.

Key:
[1] = Aqueous solubility of the compound; format: physicochemical; settings: buffer
[2] = Antioxidant activity assessed as DPPH radical scavenging activity measured for 60 mins by spectrophotometric analysis; format: functional
[3] = Stability in simulated intestinal fluid at pH 6.8 assessed as half life at 1 mM by HPLC analysis; format: ADME
[4] = Stability in simulated gastric fluid at pH 1.1 assessed as drug degradation at 1 mM measured after 24 hrs by HPLC analysis; format: ADME; settings: read-out: Drug degradation
[5] = Stability in alkaline phosphatase buffer at pH 7.4 assessed as drug degradation at 1 mM measured after 48 hrs by HPLC analysis; format: ADME; settings: read-out: Drug degradation
[6] = Prodrug conversion assessed as RNase (unknown origin) -mediated drug release by measuring half life in imidazole buffer at 1 mM by UV/Vis detector based HPLC analysis; format: ADME; settings: human, 1000 µM
[7] = Prodrug conversion assessed as RNase (unknown origin)-mediated drug release by measuring half life in simulated intestinal fluid at 1 mM by UV/Vis detector based HPLC analysis; format: ADME; settings: human, simulated gi fluid, 1000 µM
[8] = system: SH-SY5Y; test: Cytotoxicity against human differentiated SH-SY5Y cells assessed as reduction in cell viability at 2 to 50 uM measured after 48 hrs by MTT assay; format: cell-based; settings: dose 2-50 µM

| SMILES | solubility [1] | pEC50 [2] | half-life at 1000 µM [3] [h] | degraded at 24 h, 1000 µM [4] [%] | degraded at 48 h, 1000 µM [5] [%] | t1/2 [6] [h] | t1/2 [7] [h] | Activity [8] | solubility ([1]; read-out: solubility) [µM] |
| --- | --- | --- | --- | --- | --- | --- | --- | --- | --- |
| COc1cc([C@@H]2Oc3cc([C@H]4Oc5cc(O)cc(O)c5C(=O)[C@@H]4O)ccc3O[C@H]2COP(=O)(O)O[C@H]2[C@@H](O)[C@H](n3cnc4c(N)ncnc43)O[C@@H]2CO)ccc1O | Soluble | 3.24 | > 24 | < 5 | < 2 | > 48 | > 48 | Non-Toxic |  |
| COc1cc([C@H]2Oc3cc([C@H]4Oc5cc(O)cc(O)c5C(=O)[C@@H]4O)ccc3O[C@@H]2CO)ccc1O [SILYBIN A] |  | 3.44 |  |  |  |  |  | Non-Toxic |  |
| Cc1c(C)c2c(c(C)c1O)CCC(C)(C(=O)O)O2 (stereo not given) [TROLOX] |  | 4.55 |  |  |  |  |  |  |  |
| COc1cc(C2Oc3cc([C@H]4Oc5cc(O)cc(O)c5C(=O)[C@@H]4O)ccc3OC2COP(=O)(O)O[C@H]2[C@@H](O)[C@H](n3cnc4c(N)ncnc43)O[C@@H]2CO)ccc1O (stereo not given in full) | Soluble | 3.21 | > 24 | < 5 | < 2 | > 48 | > 48 | Non-Toxic |  |
| COc1cc([C@H]2Oc3cc([C@H]4Oc5cc(O)cc(O)c5C(=O)[C@@H]4O)ccc3O[C@@H]2COP(=O)(O)O[C@H]2[C@@H](O)[C@H](n3ccc(=O)[nH]c3=O)O[C@@H]2CO)ccc1O | Soluble | 3.24 | > 24 | 27 | < 2 | 1.45 | 13 | Non-Toxic |  |
| COc1cc([C@@H]2Oc3cc([C@H]4Oc5cc(O)cc(O)c5C(=O)[C@@H]4O)ccc3O[C@H]2COP(=O)(O)O[C@H]2[C@@H](O)[C@H](n3ccc(=O)[nH]c3=O)O[C@@H]2CO)ccc1O | Soluble | 3.28 | > 24 | 27 | < 2 | 0.833 | 11 | Non-Toxic |  |
| COc1cc(C2Oc3cc([C@H]4Oc5cc(O)cc(O)c5C(=O)[C@@H]4O)ccc3OC2COP(=O)(O)O[C@H]2[C@@H](O)[C@H](n3ccc(=O)[nH]c3=O)O[C@@H]2CO)ccc1O (stereo not given in full) | Soluble | 3.31 | > 24 | 27 | < 2 | 1.67 | 20 | Non-Toxic |  |
| COc1cc(C2Oc3cc([C@H]4Oc5cc(O)cc(O)c5C(=O)[C@@H]4O)ccc3OC2CO)ccc1O (stereo not given in full) [SILIBININ] |  | 3.21 |  |  |  |  |  |  | 1 (≈ 0.482 µg/mL) |
| COc1cc([C@H]2Oc3cc([C@H]4Oc5cc(O)cc(O)c5C(=O)[C@@H]4O)ccc3O[C@@H]2COP(=O)(O)O[C@H]2[C@@H](O)[C@H](n3cnc4c(N)ncnc43)O[C@@H]2CO)ccc1O | Soluble | 3.20 | > 24 | < 5 | < 2 | > 48 | > 48 | Non-Toxic |  |
| COc1cc([C@@H]2Oc3cc([C@H]4Oc5cc(O)cc(O)c5C(=O)[C@@H]4O)ccc3O[C@H]2CO)ccc1O [SILYBIN B] |  | 3.24 |  |  |  |  |  | Non-Toxic |  |
